Data on 1 molecule can be found in US4251444A, “Thiazepino-[4,3-b]-isoquinoline-1,5-dione derivatives and precursors” (American Home Products Corporation, priority 1980, dated 1981).

This assay deals with male spontaneously hypertensive rats. The assay can be described thus: blood pressure lowering, systolic pressure by Decker Caudal Plethysmograph. In kind it is in vivo. To be noted: four hours after administration of a 50 milligram dose; standard experimental rat, oral. As to the method: The compounds tested were administered orally and blood pressure was read prior to and at 1.5, 4 and 24 hours after drug administration.

Take `CC(CSC(=O)c1ccccc1)C(=O)N1Cc2ccccc2CC1C(=O)O` (single isomer, unassigned) [Example 4, 2-(3-Benzoylthio-2-methylpropanoyl)-1,2,3,4-tetrahydroisoquinoline-3-carboxylic acid]: the “reduction of blood pressure” value is 29 millimeters.
